Laboratory results as given in patent US20070258921A1, “PROCESS FOR DEPIGMENTING THE SKIN” (L'OREAL, priority 2006, published 2007).

How the values were obtained:
[1] = tested on: cocultures of keratinocytes and of melanocytes; assay: Inhibition of melanin synthesis (ratio of thiouracil to leucine incorporation) in keratinocyte/melanocyte cocultures; type: cell-based
Method: (§1) The modulating effect with regard to melanogenesis of the compounds tested was measured according to the method described in Patent FR-A-2 734 825 and in the paper by R. Schmidt, P. Krien and M. Régnier, Anal. Biochem., 235(2), 113-18, 1996. This test is carried out on cocultures of keratinocytes and of melanocytes.
(§2) For the compound tested, the following were determined:
the inhibitory activity with regard to the synthesis of melanin, by estimating the ratio of the incorporation of thiouracil to the incorporation of leucine, with respect to 100% of the control (the control corresponds to the test carried out without compound to be tested). The IC50 (concentration at which the synthesis of melanin is inhibited by 50%) values were determined.

[2] = tested on: cocultures of keratinocytes and of melanocytes; assay: Cytotoxicity by estimating the incorporation of leucine in keratinocyte/melanocyte cocultures; type: cell-based
Method: as §1, §2
the cytotoxicity, by estimating the incorporation of leucine, […]

SMILES	IC50 ([1]; ratio of thiouracil to leucine incorporation, with respect to 100% of the control, read-out: IC50 (concentration at which the synthesis of melanin is inhibited by 50%)) [µM]	Cytotoxicity [2]	inhibition at 100 µM ([1]; at the concentration of 100 μM, read-out: melanin synthesis inhibited) [%]
CC(=O)OC[C@H]1O[C@@H](n2cnc3c(N)ncnc32)[C@@H]2OC(C)(C)O[C@@H]21 [Compound H, 2′,3′-isopropylidene-5′-acetyladenosine]	35	No	–
Nc1ncnc2c1ncn2[C@@H]1O[C@H](CO)[C@@H](O)[C@H]1O [adenosine, reference compound]	–	–	20
